Reference: patent publication US6759403B2, “Metalloporphyrins and their uses as radiosensitizers for radiation therapy” (Brookhaven Science Associates, LLC, priority 2001, dated 2004)
Where two headings read alike, the source gives them in different places.

Legend:
[1] = system: malignant brain tumors; settings: clinical use of BPA; cited from earlier work
[2] = system: subcutaneous 9L gliosarcomas; assay: CuTCPH dose increase and tumor boron concentration in rats with 9L gliosarcomas; format: in vivo, Fischer 344 rats
Text: Toxicity is the critical factor, and since no toxicity was observed, the dose can be increased to achieve tumor boron concentrations higher than those in Examples 2 and 3.

[3] = system: subcutaneous 9L gliosarcomas; assay: Boron biodistribution after intravenous infusion in rat 9L gliosarcoma model (Examples 6 and 7); format: in vivo, Fischer 344 rats
Experimental: This example used the experimental rat 9L gliosarcoma model and the protocol used to administer porphyrins by intravenous infusion that were reported in J. NeuroOncol, 52, 111-117, 2001. Six (6) male Fischer 344 rats bearing subcutaneous 9L gliosarcomas were infused intravenously with CuTCPBr at a total dose of 220 μg/gbw over 48 hours. Tumor and blood were sampled from each at zero, one, two and three days after the end of infusion and the boron concentrations measured. In this example, the biodistribution of CuTCPBr was compared to CuTCPH. A group of six (6) male Fischer 344 rats bearing subcutaneous 9L gliosarcomas were infused intravenously with CuTCPBr at a total dose of 220 μg/gbw over 48 hours. A second group of four (4) male Fischer 344 rats bearing subcutaneous 9L gliosarcomas were infused intravenously with CuTCPH at a total dose of 195 μg/gbw. over 48 hours. Boron concentrations in tissues from both groups of rats were taken three days after the end of infusion. The results for the CuTCPBr group of rats are listed in column 2 of Table 6 and the results for the CuTCPH group of rats are listed in column 4 of Table 6. To account for the difference in porphyrin dose (195 μg/gbw for CuTCPH versus 220 μg/gbw for CuTCPBr) and the difference in % boron in each porphyrin (31.8% for CuTCPH versus 21.7 for CuTCPBr), the boron concentrations in tissues from rats given CuTCPBr were normalized so that they would be equivalent to the boron concentrations of rats given CuTCPH. This was done by multiplying the boron concentrations in the CuTCPBr group of rats by the CuTCPBr to CuTCPH boron dose ratio of 1.3. The normalized boron concentrations for the CuTCPBr group of rats are listed in column 3 of Table 6.

[4] = system: EMT-6 mammary carcinomas; settings: 180 μg/gbw CuTCPH, 6 ip injections over 2 days, cited from earlier work
[5] = system: EMT-6 mammary carcinomas; assay: CuTCPH boron biodistribution in EMT-6 tumor-bearing mice (prior results, Rad. Res. 155, 603-610, 2001); format: in vivo, BALB/c mice
Experimental: There is a larger vascular system surrounding the dorsal thorax compared with the leg, which may be a factor. However, in the case of CuTCPH, the boron concentration was 30% higher in leg tumors compared to back tumors. Normalizing to the slightly higher dose of the first study, the tumor boron concentration should be about 29 and 15 μg/g at 2d and 5d, respectively, which are still low. Studies are underway to repeat these experiments.
The biodistribution properties for CuTCPBr are similar to other lipophilic tetracarboranyl tetraphenylporphyrins studied previously, particularly the results for CuTCPH which were reported in Rad. Res. 155, 603-610, 2001 and are listed in columns four and five of Table 4. The CuTCPH results were based on two groups of seven (7) BALB/c mice which were given 180 μg/gbw CuTCPH in six intraperitoneal injections over 2 days. The first group of mice was euthanized two days after the last injection and the second group four days after the last injection. The boron concentrations in different tissues were then measured.

[6] = 195 μg/gbw CuTCPH (61.8 μg B/gbw) iv over 48 hours, 3 days after end of infusion

N[C@@H](Cc1ccc(B(O)O)cc1)C(=O)O [BPA, p-boronophenylalanine]
blood boron concentration relative to that found in tumor [1]: approximately one-third
brain boron concentration relative to that found in tumor [1]: approximately one-third
chemical toxicity associated with usage [1]: not eliciting any chemical toxicity

copper tetracarboranylmethoxyphenylporphyrin [CuTCPH]
tumor boron concentration, median ([2]; CuTCPH total dose 195 mg/kg body weight): 64 µg/g
tumor boron concentration, median ([2]; CuTCPH total dose 450 mg/kg body weight): 117 µg/g
Boron Concentration, Brain [3, 6]: 3.2 (1.4) μg/g
Boron Concentration, Kidney [3, 6]: 16 (2) μg/g
Boron Concentration, Lacrimal Gland [3, 6]: 45 (11) μg/g
Boron Concentration, Liver [3, 6]: 638 (53) μg/g
Boron Concentration, Lung [3, 6]: 83 (12) μg/g
Boron Concentration, Lymph Nodes [3, 6]: 284 (68) μg/g
Boron Concentration, Parotid Gland [3, 6]: 125 (26) μg/g
Boron Concentration, Spleen [3, 6]: 832 (169) μg/g
Boron Concentration, Tongue [3, 6]: 47 (11) μg/g
Boron Concentration, Tumor [3, 6]: 63 (23) μg/g
Boron concentration, Ears [3, 6]: 17 (3) μg/g
Toxicity ([3]; rats, 220 μg/gbw CuTCPBr or 195 μg/gbw CuTCPH iv over 48 hours): does not appear to be a major problem
Boron Concentration, Blood ([4]; after 2 days): 0 (0) μg/g
Boron Concentration, Brain ([4]; after 2 days): 0.2 (0.1) μg/g
Boron Concentration, Ears (skin) ([4]; after 2 days): 8.4 (2.1) μg/g
Boron Concentration, Liver ([4]; after 2 days): 562 (79) μg/g
Boron Concentration, Tumor ([4]; after 2 days): 62 (10) μg/g
Boron Concentration, Blood ([4]; after 4 days): 0.3 (0.1) μg/g
Boron Concentration, Brain ([4]; after 4 days): 0.7 (0.3) μg/g
Boron Concentration, Ears (skin) ([4]; after 4 days): 14 (2.6) μg/g
Boron Concentration, Liver ([4]; after 4 days): 534 (124) μg/g
Boron Concentration, Tumor ([4]; after 4 days): 71 (9) μg/g
decrease of liver boron from two to four days ([5]; 180 μg/gbw CuTCPH): 5%
boron concentration higher in leg tumors compared to back tumors ([5]; CuTCPH, leg versus back tumors): 30%
